Measurements reported in patent US20180059115A1, “METHODS FOR MONITORING POLYMORPHONUCLEAR MYELOID DERIVED SUPPRESSOR CELLS, AND COMPOSITIONS AND METHODS OF TREATMENT OF CANCER” (The Wistar Institute of Anatomy and Biology, priority 2016, published 2018).
“Also recorded” adds a separate entry of the source.

Tests used:
[1] = system: PMN isolated from healthy donors; assay: In vitro PMN LOX-1 induction by ER stress inducers, LOX-1 by flow cytometry; format: cell-based, human; conditions: overnight with GM-CSF, THG 1 μM, DTT 1 mM
Experimental: (§1) PMNs from healthy donors were isolated on a Histopaque gradient. 5×10^5 cells/ml were cultured for 12 hrs with 10 ng/ml of GM-CSF in the presence of dithiothreitol (DTT) (0.5, 1, 2 mM; Sigma), tunicamycin (0.5, 1, and 2 μg/ml; Sigma-Aldrich), or thapsigargin (0.5, 1, and 2 μM; Sigma). In some instances, 20 μM of the XBP-1 inhibitor BIO9 was added 3 hours prior to culture. Cells were then stained for flow cytometry or used for functional assays as described above.
Flow cytometry data were acquired using a BD LSR II flow cytometer and analyzed using FlowJo software (Tree Star) Immunofluorescent microscopy: Following deparaffinization and rehydration, heat induced antigen retrieval was performed using Tris-EDTA buffer pH 9. Followed by blocking with 5% BSA, tissues were stained with Lox1 antibody (Abcam; Cat no ab126538) and CD15 antibody (BD biosciences; Cat no 555400) at 1:200 dilution in 5% BSA each for 1 hour at room temperature. The following secondary antibodies were used Alexa Fluor anti-rabbit A647 (1:200 dilution in 5% BSA, Life technologies) for Lox1 and anti-mouse A514 (1:400 dilution in 5% BSA, Life technologies) for CD15 staining. CD15 staining was pseudo colored red and Lox1 staining was pseudo colored green. Nucleus was stained using DAPI (1:5000 dilution in PBS, Life technologies). Images were obtained using Leica TCS SP5 Confocal microscope. […]

[2] = system: T lymphocytes; assay: Three-way allogeneic MLR suppression assay (thymidine incorporation); format: cell-based, human; conditions: 1 μM NAC, 1000 U/ml catalase, 20 μM Nor-NOHA, 1:2 PMN:T cell ratio
Excerpt: Whole blood was enriched for PMNs using MACSxpress® Neutrophil Isolation Kit (Miltenyi) following the protocol provided by the manufacturer. Cells were then labeled with anti-Lox1-PE mAb (Biolegend) and then separated using anti-PE beads and MACS column (Miltenyi). For the three-way allogenic MLR suppression assay, T lymphocytes from one healthy donor were purified using the Human CD3+ T Cell Enrichment Column Kit (R&D Systems) and used as responder cells. Dendritic cells were generated from adherent monocytes from another healthy donor in the presence of 25 ng/mL GM-CSF and 25 ng/mL IL-4 (Peprotech) for 6 days and used as stimulator cells. Responder and stimulator cells were then mixed at a 10:1 ratio followed by the addition of Lox1+ or Lox1− PMNs. T lymphocyte proliferation was assessed after 5 days of culture by thymidine incorporation.
In some experiments, 1 μM N-acetyl cysteine (NAC; Sigma) or 20 μM of Nω-hydroxy-norarginine (nor-NOHA; Cayman Chemical) was added to the culture media to block ROS or agrinase I activity, respectively. T lymphocyte proliferation was assessed after 5 days of culture by thymidine incorporation.

[3] = system: T lymphocytes; assay: CD3/CD28 induced T-cell proliferation suppression assay (3H-thymidine uptake); format: cell-based, human; conditions: healthy donor PMN treated overnight with 1 μM THG, washed
Experimental: Concurrently, T-lymphocytes were isolated from the PBMC of the same patient as LOX-1+ PMN using human CD3+ T Cell Enrichment Column Kit. PMNs were plated at different ratios with […] T lymphocytes in a 96-well plate coated with 10 μg/ml anti-CD3 (clone UCHT1; BD Biosciences) followed by the addition of 1 μg/ml of soluble anti-CD28 (clone CD28.2; BD Biosciences). T lymphocyte proliferation was assessed after 3 days of culture by thymidine incorporation.
as §1

[4] = system: PMN isolated from healthy donors; assay: LOX-1 expression in PMN treated with cytokines or tumor-cell conditioned medium; format: cell-based, human; conditions: healthy donor PMN, 24 hr culture, GM-CSF added; TCM 20% v/v
Experimental: FIGS. 11A and 11B show the mechanism regulating LOX-1 expression on PMN-MDSC, specifically the percentage of LOX-1+ PMN (FIG. 11A) and expression of LOX-1 (FIG. 11B) in PMN isolated from 4 healthy donors and treated with indicated cytokines. Range of concentrations based on reported data were tested and only one for each cytokine is shown. Conditioned medium from PCI30 tumor cells (TCM) was used at 20% v/v concentration. Mean and SD are shown.
What could induce LOX-1 up-regulation in PMN-MDSC? Based on the fact that in endothelial cells LOX-1 can be induced by pro-inflammatory cytokines^35, we tested the effect of several cytokines as well as tumor-cell conditioned medium (TCM) on LOX-1 expression in PMN isolated from healthy donors. None of the tested pro-inflammatory cytokines (IL-1β, TNFα, IL-6) or TCM induced upregulation of LOX-1 in PMN after 24 hr culture (GM-CSF was added to protect PMN viability) (FIGS. 11A and 11B).

[5] = system: hepatic L02 cells; conditions: cited from earlier work

Molecule | effect on LOX-expression in PMN / immune suppressive activity of LOX-1+ PMN-MDSC [2] | upregulation of LOX-1 in PMN [4] | other results
O[C@H](CS)[C@H](O)CS (racemic) [DTT, dithiothreitol] | – | – | LOX-1 expression in PMN [1]: dramatic up-regulation of LOX-1 expression
CC(=O)N[C@@H](CS)C(=O)O [NAC, N-acetylcysteine] | substantially decreased LOX-expression | – | –
N=C(NO)NCC[C@H](N)C(=O)O [Nor-NOHA, Nω-hydroxy-norarginine] | substantially decreased LOX-expression | – | –
C/C=C(/C)C(=O)O[C@H]1C(C)=C2[C@H]([C@@H]1OC(=O)CCCCCCC)[C@@](C)(OC(C)=O)C[C@H](OC(=O)CCC)[C@@]1(O)[C@H]2OC(=O)[C@@]1(C)O [THG, thapsigargin] | – | – | LOX-1 expression in PMN [1]: dramatic up-regulation of LOX-1 expression; immune suppressive activity of treated PMN (T-cell proliferation) [3]: caused acquisition of potent immune suppressive activity; also recorded: converted PMN to PMN-MDSC
IL-1β: pro-inflammatory cytokine | – | None | –
IL-6: pro-inflammatory cytokine | – | None | –
TNFα | – | None | –
catalase | substantially decreased LOX-expression | – | –
tunicamycin | – | – | LOX-1 expression under ER stress [5]: caused down-regulation of LOX-1
